Reference: article PMC6338741 (Nature Communications, 2019)

What was measured:
[1] = molecular target: T1, human DOPA decarboxylase (DDC) (Homo sapiens, UniProt P20711); assay: IC50 curves with carbidopa as inhibitor, levodopa as substrate; type: biochemical
T1 construct: 6xHis; host or cells: Escherichia coli BL21 (DE3)
T1 sequence (P20711 1-480): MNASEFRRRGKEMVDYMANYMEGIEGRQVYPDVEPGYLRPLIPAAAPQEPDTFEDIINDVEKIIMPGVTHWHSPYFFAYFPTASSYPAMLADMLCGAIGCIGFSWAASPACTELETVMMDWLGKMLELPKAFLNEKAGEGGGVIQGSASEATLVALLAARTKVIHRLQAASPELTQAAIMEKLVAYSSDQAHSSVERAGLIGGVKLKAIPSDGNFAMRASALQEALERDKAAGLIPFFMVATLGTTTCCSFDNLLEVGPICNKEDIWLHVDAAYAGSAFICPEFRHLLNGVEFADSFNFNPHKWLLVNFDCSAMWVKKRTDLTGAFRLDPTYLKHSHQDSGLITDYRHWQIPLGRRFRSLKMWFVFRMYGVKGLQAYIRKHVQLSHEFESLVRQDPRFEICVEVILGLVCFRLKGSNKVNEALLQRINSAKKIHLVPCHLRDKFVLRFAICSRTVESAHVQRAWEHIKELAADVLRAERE

TDCEFM = TDCEFM (Enterococcus faecium, UniProt Q3Y2S5); assay: as above; type: biochemical, Enterococcus faecium W54
[2] = molecular target: bacterial TDCs versus human DOPA decarboxylase; assay: Comparison of the inhibitory constants (Ki^TDC/Ki^DDC); type: biochemical; conditions: over the three bacterial TDCs
Protocol: (§1) Enzyme kinetics were performed in 200 mM potassium acetate buffer containing 0.1 mM PLP (pyridoxal-5-phosphate, P9255, Sigma, The Netherlands) and 10 nM of enzyme at pH 5 for TDCEFS and TDCEFM, and pH 4.5 for ^PTDCEFM. […] Michaelis–Menten kinetic curves were fitted using GraphPad Prism 7. […] Reactions were stopped with 0.7% HClO4, filtered and analyzed on the HPLC-ED-system described below.

^PTDCEFM = molecular target: T2, ^PTDCEFM (Enterococcus faecium, UniProt A0A481NV25); assay: IC50 curves with carbidopa as inhibitor, levodopa as substrate; type: biochemical, Enterococcus faecium W54
T2 construct: 6xHis; made in house; host or cells: Escherichia coli BL21 (DE3), plasmid pSK22 (pET15b)

E. faecalis v583 [3] = assay: Levodopa decarboxylation by stationary batch cultures co-incubated with human DOPA decarboxylase inhibitors; conditions: E. faecalis v583, OD600 ~2.0, stationary phase, 15 min, 100 µM levodopa, equimolar or 21.7 µM carbidopa
TDCEFS = molecular target: T3, TDCEFS (Enterococcus faecalis, UniProt Q838D6); assay: IC50 curves with carbidopa as inhibitor, levodopa as substrate; type: biochemical, Enterococcus faecalis v583
T3 construct: 6xHis; made in house; host or cells: Escherichia coli BL21 (DE3), plasmid pSK18 (pET15b)

E. faecium W54 [4] = assay: Levodopa decarboxylation by stationary batch cultures co-incubated with human DOPA decarboxylase inhibitors; conditions: E. faecium W54, OD600 ~2.0, stationary phase, 15 min, 100 µM levodopa, equimolar or 21.7 µM carbidopa
[5] = test system: TDCEFM (tyrosine decarboxylase from E. faecium W54); assay: Michaelis–Menten enzyme kinetics of purified tyrosine decarboxylase; type: biochemical, Enterococcus faecium W54
From the text: (§2) To further characterize the substrate specificity and kinetic parameters of the bacterial TDCs, tdc genes from E. faecalis v583 (TDCEFS) and E. faecium W54 (TDCEFM and ^PTDCEFM) were expressed in Escherichia coli BL21 (DE3) and then purified.
(§3) The human DOPA decarboxylase gene cloned in pET15b was ordered from GenScript (Piscataway, USA) (Supplementary Table 6). TDC-encoding genes from E. faecalis v583 (TDCEFS, accession: EOT87933), E. faecium W54 (TDCEFM, accession: MH358385; ^PTDCEFM, accession: MH358384) were amplified using Phusion High-fidelity DNA polymerase and primers listed in Supplementary Table 8. All amplified genes were cloned in pET15b, resulting in pSK18, pSK11, and pSK22, respectively (Supplementary Table 6). Plasmids were maintained in E. coli DH5α and verified by Sanger sequencing before transformation to E. coli BL21 (DE3). Overnight cultures were diluted 1:50 in fresh LB medium with the appropriate antibiotic and grown to OD600 = 0.7–0.8. Protein translation was induced with 1 mM Isopropyl β-D-1-thiogalactopyranoside (IPTG, 11411446001, Roche Diagnostics) and cultures were incubated overnight at 18 °C. The cells were washed with 1/5th of 1 × ice-cold PBS and stored at −80 °C or directly used for protein isolation. Cell pellets were thawed on ice and resuspended in 1/50th of buffer A (300 mM NaCl; 10 mM imidazole; 50 mM KPO4, pH 7.5) containing 0.2 mg/mL lysozyme (105281, Merck) and 2 µg/mL DNAse (11284932001, Roche Diagnostics), and incubated for at least 10 min on ice before sonication (10 cycles of 15 s with 30 s cooling at 8 microns amplitude) using Soniprep-150 plus (Beun de Ronde, Abcoude, The Netherlands). Cell debris were removed by centrifugation at 20,000 × g for 20 min at 4 °C. The 6 × his-tagged proteins were purified using a nickel-nitrilotriacetic acid (Ni-NTA) agarose matrix (30250, Qiagen). Cell-free extracts were loaded on 0.5 ml Ni-NTA matrixes and incubated on a roller shaker for 2 h at 4 °C. The Ni-NTA matrix was washed three times with 1.5 ml buffer B (300 mM NaCl; 20 mM imidazole; 50 mM KPO4, pH 7.5) before elution with buffer C (300 mM NaCl; 250 mM imidazole; 50 mM KPO4, pH 7.5). Imidazole was removed from purified protein fractions using Amicon Ultra centrifugal filters (UFC505024, Merck) and washed three times and reconstituted in buffer D (50 mM Tris-HCL; 300 mM NaCl; pH 7.5) for TDCEFS, and TDCEFM, buffer E (100 mM KPO4; pH 7.4) for ^PTDCEFM and buffer F (100 mM KPO4; 0.1 mM pyridoxal-5-phosphate; pH 7.4) for DDC. Protein concentrations were measured spectrophotometrically (Nanodrop 2000, Isogen, De Meern, The Netherlands) using the predicted extinction coefficient and molecular weight from ExPASy ProtParam tool (www.web.expasy.org/protparam/).
as §1

[6] = test system: T4, ^PTDCEFM (paralogous tyrosine decarboxylase from E. faecium W54); assay: Michaelis–Menten enzyme kinetics of purified paralogous tyrosine decarboxylase; type: biochemical, Enterococcus faecium W54
T4 construct: 6xHis; made in house; host or cells: Escherichia coli BL21 (DE3), plasmid pSK22 (pET15b)
From the text: as §2, §3, §1

[7] = test system: T5, TDCEFS (tyrosine decarboxylase from E. faecalis v583); assay: Michaelis–Menten enzyme kinetics of purified tyrosine decarboxylase; type: biochemical, Enterococcus faecalis v583
T5 construct: 6xHis; made in house; host or cells: Escherichia coli BL21 (DE3), plasmid pSK18 (pET15b)
From the text: as §2, §3, §1

E. faecium W54 [8] = assay: Bacterial cultures incubated anaerobically with levodopa, HPLC-ED; type: cell-based, Enterococcus faecium W54; conditions: E. faecium W54 (enterococcal isolates), overnight culture, anaerobic, 37 °C, 100 µM levodopa
E. faecalis v583 [9] = assay: as above; type: cell-based, Enterococcus faecalis v583; conditions: E. faecalis v583 (enterococcal isolates), overnight culture, anaerobic, 37 °C, 100 µM levodopa
L. brevis W63 = assay: as above; conditions: L. brevis W63, overnight culture, anaerobic, 37 °C, 100 µM levodopa
[10] = substrate: N[C@@H](Cc1ccc(O)c(O)c1)C(=O)O; assay: purified protein, by the assay type; conditions: other: DDC, levodopa as substrate, as used for Ki
[11] = levodopa as substrate, as used for Ki
[12] = pH 5.0, 10 nM enzyme, substance as substrate
[13] = ^PTDCEFM, pH 4.5, 10 nM enzyme, substance as substrate

T3 sequence (Q838D6 whole entry): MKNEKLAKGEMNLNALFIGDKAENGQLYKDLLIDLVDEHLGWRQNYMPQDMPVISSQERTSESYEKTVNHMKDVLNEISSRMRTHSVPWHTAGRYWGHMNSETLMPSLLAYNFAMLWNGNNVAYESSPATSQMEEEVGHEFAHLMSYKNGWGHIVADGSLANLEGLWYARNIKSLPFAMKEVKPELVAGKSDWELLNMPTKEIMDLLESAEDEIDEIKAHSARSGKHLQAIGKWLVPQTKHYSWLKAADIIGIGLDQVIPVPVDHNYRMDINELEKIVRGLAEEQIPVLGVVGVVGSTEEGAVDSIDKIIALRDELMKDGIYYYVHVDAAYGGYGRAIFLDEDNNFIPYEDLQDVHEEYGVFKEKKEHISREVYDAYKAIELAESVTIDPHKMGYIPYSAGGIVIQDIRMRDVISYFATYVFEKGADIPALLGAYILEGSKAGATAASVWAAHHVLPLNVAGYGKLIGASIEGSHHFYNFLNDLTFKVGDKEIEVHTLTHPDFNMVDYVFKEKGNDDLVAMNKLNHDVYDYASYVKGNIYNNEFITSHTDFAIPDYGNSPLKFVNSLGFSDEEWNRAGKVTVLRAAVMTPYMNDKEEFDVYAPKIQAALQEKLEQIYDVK
T2 sequence (A0A481NV25 whole entry): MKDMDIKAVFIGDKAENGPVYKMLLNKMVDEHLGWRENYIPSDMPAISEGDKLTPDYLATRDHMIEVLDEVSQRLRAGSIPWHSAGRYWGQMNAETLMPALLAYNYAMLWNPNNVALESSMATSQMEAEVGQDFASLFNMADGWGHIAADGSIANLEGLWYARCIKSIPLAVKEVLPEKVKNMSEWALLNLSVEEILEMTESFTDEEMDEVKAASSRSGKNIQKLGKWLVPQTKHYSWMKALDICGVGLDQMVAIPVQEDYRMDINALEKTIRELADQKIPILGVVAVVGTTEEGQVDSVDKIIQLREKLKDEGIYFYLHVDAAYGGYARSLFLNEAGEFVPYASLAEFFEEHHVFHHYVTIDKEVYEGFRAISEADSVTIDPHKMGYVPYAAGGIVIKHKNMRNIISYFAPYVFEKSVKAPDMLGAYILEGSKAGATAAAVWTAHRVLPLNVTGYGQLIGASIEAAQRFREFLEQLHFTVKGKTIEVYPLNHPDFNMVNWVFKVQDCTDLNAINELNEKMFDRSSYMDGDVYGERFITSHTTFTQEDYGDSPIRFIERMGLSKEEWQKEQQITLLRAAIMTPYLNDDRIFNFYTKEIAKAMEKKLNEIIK
Sequence of TDCEFM (Q3Y2S5 entry or part of it): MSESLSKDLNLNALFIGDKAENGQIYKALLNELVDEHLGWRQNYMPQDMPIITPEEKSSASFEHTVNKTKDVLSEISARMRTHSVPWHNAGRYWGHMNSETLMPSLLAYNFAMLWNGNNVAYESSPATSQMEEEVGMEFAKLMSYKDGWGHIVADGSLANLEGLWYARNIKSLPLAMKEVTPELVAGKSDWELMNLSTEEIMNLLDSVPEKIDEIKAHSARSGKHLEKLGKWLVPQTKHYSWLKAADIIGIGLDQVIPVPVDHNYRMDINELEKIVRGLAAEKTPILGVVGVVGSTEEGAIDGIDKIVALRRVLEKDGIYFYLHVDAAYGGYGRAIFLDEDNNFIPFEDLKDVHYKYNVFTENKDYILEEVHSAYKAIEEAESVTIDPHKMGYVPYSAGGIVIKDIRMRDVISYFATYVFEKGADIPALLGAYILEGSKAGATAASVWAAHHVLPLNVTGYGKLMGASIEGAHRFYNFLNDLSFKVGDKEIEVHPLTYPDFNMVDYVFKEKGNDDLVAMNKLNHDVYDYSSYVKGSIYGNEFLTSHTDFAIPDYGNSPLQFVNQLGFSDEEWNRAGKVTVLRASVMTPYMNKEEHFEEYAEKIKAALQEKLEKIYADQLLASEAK

## C[C@@](Cc1ccc(O)c(O)c1)(NN)C(=O)O [carbidopa]
[1]
  IC50: 0.01 µM
[1]; DDC, IC50 curve
  HillSlope: 1.16
[1]; DDC, [S] levodopa 100 µM
  [IC50]/[s]: 0.01%
[1]; read-out: Ki=IC50/(1+([S]/Km))
  Ki: 0.005 µM
TDCEFM
  IC50: 79.2 µM
TDCEFM; TDCEFM, IC50 curve
  HillSlope: 1.3
TDCEFM; TDCEFM, [S] levodopa 1000 µM
  [IC50]/[s]: 8%
TDCEFM; read-out: Ki=IC50/(1+([S]/Km))
  Ki: 69.6 µM
[2]
  Ki^TDC/Ki^DDC, times more potent inhibitor of human DOPA decarboxylase than bacterial TDCs: 1.4–1.9 × 10^4
^PTDCEFM
  IC50: 201 µM
^PTDCEFM; PTDCEFM, IC50 curve
  HillSlope: 1.1
^PTDCEFM; PTDCEFM, [S] levodopa 500 µM
  [IC50]/[s]: 40%
^PTDCEFM; read-out: Ki=IC50/(1+([S]/Km))
  Ki: 95.1 µM
E. faecalis v583 [3]
  levodopa conversion by batch culture on co-incubation with carbidopa: unaffected
TDCEFS
  IC50: 93.8 µM
TDCEFS; TDCEFS, IC50 curve
  HillSlope: 1.6
TDCEFS; TDCEFS, [S] levodopa 1000 µM
  [IC50]/[s]: 9%
TDCEFS; read-out: Ki=IC50/(1+([S]/Km))
  Ki: 70.6 µM
E. faecium W54 [4]
  levodopa conversion by batch culture on co-incubation with carbidopa: unaffected

## N[C@@H](Cc1ccc(O)c(O)c1)C(=O)O [levodopa, L-3,4-dihydroxyphenylalanine]
[5]; [11]
  Km: 7240 µM
[5]; [12]
  Kcat: 42.48 ± 2.22 s⁻¹
  Km: 7200 ± 800 µM
  Vmax: 25.5 ± 1.3 µM/min
[6]; PTDCEFM, levodopa as substrate, as used for Ki
  Km: 448 µM
[6]; [13]
  Kcat: 5.707 ± 0.35 s⁻¹
  Km: 400 ± 100 µM
  Vmax: 3.4 ± 0.2 µM/min
[7]; [11]
  Km: 3040 µM
[7]; [12]
  Kcat: 58.85 ± 2.28 s⁻¹
  Km: 3000 ± 400 µM
  Vmax: 35.3 ± 1.4 µM/min

## N[C@@H](Cc1ccc(O)cc1)C(=O)O [tyrosine, L-tyrosine]
[5]; [12]
  Kcat: 36.73 ± 4.12 s⁻¹
  Km: 1500 ± 300 µM
  Vmax: 22 ± 2.5 µM/min
[6]; [13]
  Kcat: 7.26 ± 0.32 s⁻¹
  Km: 200 ± 50 µM
  Vmax: 4.4 ± 0.2 µM/min
E. faecium W54 [8]
  conversion of tyrosine and levodopa into tyramine and dopamine by the culture: able to convert
E. faecalis v583 [9]
  conversion of tyrosine and levodopa into tyramine and dopamine by the culture: able to convert
[7]; [12]
  Kcat: 116 ± 4.8 s⁻¹
  Km: 600 ± 100 µM
  Vmax: 69.6 ± 2.9 µM/min
L. brevis W63
  conversion of tyrosine and levodopa into tyramine and dopamine by the culture: able to convert

B1: human DOPA decarboxylase (DDC) (Homo sapiens) (protein)
chain: MNASEFRRRGKEMVDYMANYMEGIEGRQVYPDVEPGYLRPLIPAAAPQEPDTFEDIINDVEKIIMPGVTHWHSPYFFAYFPTASSYPAMLADMLCGAIGCIGFSWAASPACTELETVMMDWLGKMLELPKAFLNEKAGEGGGVIQGSASEATLVALLAARTKVIHRLQAASPELTQAAIMEKLVAYSSDQAHSSVERAGLIGGVKLKAIPSDGNFAMRASALQEALERDKAAGLIPFFMVATLGTTTCCSFDNLLEVGPICNKEDIWLHVDAAYAGSAFICPEFRHLLNGVEFADSFNFNPHKWLLVNFDCSAMWVKKRTDLTGAFRLDPTYLKHSHQDSGLITDYRHWQIPLGRRFRSLKMWFVFRMYGVKGLQAYIRKHVQLSHEFESLVRQDPRFEICVEVILGLVCFRLKGSNKVNEALLQRINSAKKIHLVPCHLRDKFVLRFAICSRTVESAHVQRAWEHIKELAADVLRAERE
[10]
  Km: 87.3 µM
